Data taken from patent US20070026398A1, “Protein tyrosine phosphatase-prl-1 a a marker and therapeutic target for pancreatic cancer” (priority 2003, published 2007).
“And” between values parts separate entries of the source, which are not always exact repeats. Identical values can stand only once. Like-named read-outs stand apart in the source and are kept apart here.

How the values were obtained:
PRL-1 = molecular target: T1, PRL-1 (Homo sapiens, UniProt Q93096); experiment: in vitro PRL-1 phosphatase enzymatic assay (tyrosine phosphatase / DiFMUP assay); type: biochemical; set-up: INHIBITION % (PRL-1 inhibitory activity): concentration or dose not given beside the values; details: for inhibitory activity against PRL-1: Promega tyrosine phosphatase assay system, TNT-expressed His-tagged PRL-1 (FIG. 7C); for INHIBITION % (PRL-1 inhibitory activity): UA Natural Products Library hits
T1 sequence (Q93096 1-173): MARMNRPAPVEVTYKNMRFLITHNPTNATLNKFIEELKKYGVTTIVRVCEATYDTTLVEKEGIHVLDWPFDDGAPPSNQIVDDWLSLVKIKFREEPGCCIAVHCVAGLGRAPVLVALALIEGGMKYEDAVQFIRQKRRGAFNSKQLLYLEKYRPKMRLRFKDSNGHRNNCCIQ
Description: Assays that measure the removal of phosphates from proteins or peptides containing phosphotyrosine may also be employed in the present invention. One method of screening for drug targets would involve measuring inhibition of PRL-1-mediated tyrosine dephosphorylation. This assay detects the amount of free […] generated in a reaction by measuring the absorbance of a molybdate:malachite green:phosphate complex. This assay detects the activity of protein tyrosine phosphatases. Such assays or systems are commercially available from suppliers such as Promega (Madison, Wis.) or Applied Biosystems (Foster City, Calif.).
Another assay employed in the present invention is an improved method for measuring protein phosphatases for high-throughput screening involving 6,8-difluoro-4-methylumbelliferyl phosphate (DiFMUP). DiFMUP can assay both acid and alkaline phosphatase activity. […] The lower pka of its hydrolysis product makes DiFMUP a sensitive substrate for acid phosphatases, which is not possible with MUP because its fluorescence must be measured at alkaline pH. Furthermore, with its high quantum yield, DiFMUP increases the sensitivity of both acid and alkaline phosphatase measurements. […] DiFMUP enables the quantitation of as little as 1.0 pg/ml alkaline phosphatase.
For example, in the present invention, a bacterial expression system may be employed (i.e., pProEx vector) from which recombinant His-tagged PRl-1 protein may be obtained and purified using a column (i.e., a nickel column). The PRl-1 enzymatic activity in the presence of a drug compound of interest and in combination with DiFMUP substrate may be incubated (about 1 h) and the dephosphorylated substrate detected.
To produce PRL-1 protein for in vitro phosphatase assays, the PRL-1 gene was cloned into an expression vector with a His tag (pcDNA™ 3.1 from Invitrogen) and the protein expressed in vitro using the TNT coupled transcription and translation kit (Promega). […] The molecular weight of this PRL-1 protein (22KDa) is exactly the same as reported in the literature. An in vitro phosphatase assay was conducted using a tyrosine phosphatase assay system (Promega) to confirm the dephosphorylation activity of the recombinant PRL-1 protein.
This assay was optimized and used to screen various compound libraries for PRL-1 inhibitors. […] Compounds identified using the DiFMUP in vitro assay to screen compounds from the Nanosyn Combichem library and the NCI database include NS19999, NS45609, NS45336, and NCI668394 respectively.
The inventors first cloned the full length open reading frame of PRL-1 to the bacteria expression vector pProEx-HTa (Invitrogen) under the control of an IPTG inducible promoter. A six-histidine tag was added to the C-terminus of PRL-1 for quick purification of PRL-1 using the Ni-NTA system. The expression vector was transformed to bacteria strain BL21 and checked for PRL-1 expression using Western blot. For large scale expression, bacteria were grown in 500 ml LB media to logarithm phase (OD600 between 0.5 to 0.9) and induced to express PRL-1 by adding IPTG to final concentration of 1 mM and incubating for 4 hours. Bacteria were harvested by centrifugation at 5,000 rpm for 5 min and resuspended in the Native Binding Buffer (50 mM NaPO4, 0.5M NaCl, pH8.0, and 10 mM imidazole) at 16 ml/100 ml culture. The bacteria cells were then lysated by adding lmg/ml lysozyme and sonication. The cell lysate was centrifuged at 3,000 g for 15 min and the supernatant were then transferred to a 10-ml column pre-packed with 1.5 ml of Ni-NTA resin (Invitrogen). The column was gently agitated for 60 min to allow the binding of the His-tagged PRL-1 to the resin. After the binding reaction, the column was washed with the Native Wash Buffer (50 mM NaPO4, 0.5M NaCl, pH 8.0, and 20 mM imidazole) for 4 times. Finally, the PRL-1 protein was eluted off the column with 10 ml of Native Elution Buffer (50 mM NaPO4, 0.5 M NaCl, pH 8.0, and 250 mM imidazole). […]

Mia PaCa-2 cells = experiment: cell proliferation assay in Mia PaCa-2 pancreatic cancer cells; type: cell-based; details: Homo sapiens
Experimental: FIGS. 13A-13C. Inhibition of cell proliferation by PRL-1 inhibitors using a SRB staining assay. FIG.13A—Inhibition of MiaPaCa-2 cell growth by UA668394. Cells were exposed to different doses of UA668394 (0.2 μM to 200 μM) for four days by SRB (Sulforhodamine B) staining. […] FIG. 13B—Inhibition of cell proliferation in pancreatic cancer cells Panc-1 and Mia PaCa-2 by the compound UA66839-1 analog. FIG. 13C—Inhibition of cell proliferation in pancreatic cancer cells Panc-l and Mia PaCa-2 by the compound UA668394-2 analog.
Cell Proliferation Assays. Cell proliferation assays with these cell lines are performed to determine the effect of target inhibition on cell growth. Cells are seeded at 2.0-5.0×10^5 cells in 100-mm culture dishes and allow to attach overnight at 37° C. Adherent cells are washed and incubated with serum-free RPMI 1640 or RPMI containing 10% FBS for 48 h, after which they are trypsinized and counted using a hemocytometer. In addition, parallel experiments are perform and instead of cell counts, the proliferative status of the cell lines is determined using flow cytometric analysis of DNA content. For flow analysis, cells are stained with propidium iodide using a modified Krishan technique (Krishan, 1975). All samples are analyze with an FACSCAN flow cytometer (Becton Dickinson) using a 15 mWatt argon ion laser operated at 6 mWatts of power at 488 nm. Photomultiplier tube voltage is adjusted for each control sample to position the G0/G1 to channel 240 on a 1024 channel presentation. Histograms are analyze for cell cycle compartments using CELLQUEST (Becton Dickinson) analysis software. Histograms having 50K events are collected to maximize the statistical validity of the compartmental analysis. The results of this flow analysis allow the examination of the cell cycle distribution of the pancreatic cancer cell lines.
UA668394 was previously identified as a PRL-1 phosphatase inhibitor (IC50=7 μM) using high throughout library screening.
Compounds identified as being positive for anti-PRL-1 activity were tested for their ability to inhibit cell proliferation in human pancreatic cancer cells. The inhibitory activity of UA668394, UA19999 and UA45336 (Table 5) were examined. Cell proliferation assays were conducted using the pancreatic cancer cell line Mia PaCa-2, as described in Example 1. Briefly, 2.0-5.0×10^5 cells were seeded in 100-mm culture dishes and allowed to attach overnight at 37° C. Adherent cells were washed and incubated with serum-free RPMI 1640 or RPMI containing 10% FBS for 48 h, and treated with the compound of interest to determine its effect on the inhibition of cell growth. For example, cells were treated with of the UA668394, UA19999 and UA45336 compounds and analyzed for inhibition of cell proliferative using a MTS assay.

[1] = PRL-1 inhibitors identified by library screening, read-out: IC50
[2] = MIA PaCa-2, MTS cell proliferation assay, read-out: IC50, inhibition of cell proliferation in Mia PaCa-2 cells

O=C(O)CN(CCN(CC(=O)O)CC(=O)O)CC(=O)O [EDTA, reference compound]
inhibitory activity against PRL-1 (PRL-1): some inhibitory activity

COc1cc(NCCC(C)=O)c2ncccc2c1 [UA292O9]
IC50 (PRL-1; [1]): 41 µM

COc1ccccc1C=C1C(=O)NC(=O)NC1=O [UA12499]
IC50 (PRL-1; IC50, PRL-1 inhibitors identified by library screening): 36.5 µM

CCC1=NN(c2ccccc2)C(=O)C(CC(=O)Nc2ccccc2)c2cc(OC)c(OC)cc21 (centres unmarked) [UA12812]
IC50 (PRL-1; [1]): 66 µM

Nc1cc(S(=O)(=O)C(F)(F)F)ccc1C(=O)O [UA12882, 2-Amino-4-trifluoromethanesulfonyl-benzoic acid]
IC50 (PRL-1; [1]): 25 µM

O=C1C=Cc2cc(Br)ccc2C1=O [UA13082]
IC50 (PRL-1; [1]): 8.7 µM

O=C(O)c1ccc2c(c1)C(=O)N(c1cccc3ccccc13)C2=O [UA13464]
IC50 (PRL-1; [1]): 72 µM

CC(=O)Oc1cc(OC(C)=O)c2c(c1)OC(=O)C(Cl)C2C (centres unmarked) [UA14798]
IC50 (PRL-1; [1]): 64 µM

CN1C(=O)C(=O)c2cc([N+](=O)[O-])ccc21 [UA19999]
IC50 (PRL-1; [1]): 33 µM | IC50 (Mia PaCa-2 cells; [2]): 120 µM

Brc1cccc(C2=NC(c3ccccc3)=C3C=CC=CN3C2)c1 [UA21497]
IC50 (PRL-1; [1]): 0.1 µM

COC(=O)c1nc(O)c2ccccc2c1O [UA45336]
IC50 (PRL-1; [1]): 12.5 µM | IC50 (Mia PaCa-2 cells; [2]): 95 µM

O=C1C(O)=C([N+](=O)[O-])C(=O)c2ccccc21 [UA45609]
IC50 (PRL-1; [1]): 17 µM

C=[N+](OC)c1nn(CC(=O)Nc2sc(C)c(C)c2C(N)=O)c(C)c1Br [UA47548]
INHIBITION % (PRL-1 inhibitory activity) (PRL-1): 70%

C=CCn1c(SCC(=O)O)nnc1-c1ccc([N+](=O)[O-])cc1 [UA58428]
INHIBITION % (PRL-1 inhibitory activity) (PRL-1): 42%

C=Cc1ccc2c3c(ccc(C=O)c13)C(Cl)=CC2=O [UA61880]
INHIBITION % (PRL-1 inhibitory activity) (PRL-1): 50%

NC(=O)c1cc2ccc(O)cc2oc1=O [UA63415]
INHIBITION % (PRL-1 inhibitory activity) (PRL-1): 62%

N#CC1=C(N)NC(=S)C(C(N)=O)C1c1ccccc1F (centres unmarked) [UA64859]
INHIBITION % (PRL-1 inhibitory activity) (PRL-1): 76%

O=C1C=C(NCCc2cc(Br)c(O)c(Br)c2)C(=O)c2ncccc21 [UA668394]
IC50 (PRL-1; [1]): 7 µM and 7.2 µM | IC50 (Mia PaCa-2 cells; MIA PaCa-2, 96 h, SRB staining, four days exposure, 0.2 μM to 200 μM (FIG. 13A legend), read-out: estimated IC50, inhibition of MiaPaCa-2 cell growth): 1.2 µM | IC50 (Mia PaCa-2 cells; [2]): 1.2 µM

[Na+].[Na+].[Na+].[O]=[V]([O-])([O-])[O-] [sodium orthovanadate, reference compound]
inhibitory activity against PRL-1 (PRL-1): some inhibitory activity
